Measurements reported in publication PMC2957673 (Cancer chemotherapy and pharmacology, 2010).

Assays:
[1] = test system: patients with advanced solid tumors; assay: Phase I dose escalation: MTD and DLT of flavopiridol with FOLFIRI; format: in vivo, human
melanoma = details: single agent; 16 patients; cited from earlier work
[2] = Flavopiridol plasma pharmacokinetics; format: in vivo; details: human, intravenous
[3] = test system: patients with refractory colorectal cancer; details: combined with irinotecan at 125 mg/m^2 given weekly for 4 of every 6 weeks; cited from earlier work
[4] = in combination with flavopiridol
[5] = split-dose schedule (MTD2): 30-min bolus followed by 4-h infusion

O=c1[nH]cc(F)c(=O)[nH]1 [5FU, fluorouracil]
established MTD (FOLFIRI component), bolus [1, 4]: 400 mg/m^2 | established MTD (FOLFIRI component), over 48 h [1, 4]: 2,400 mg/m^2

Nc1nc2c(c(=O)[nH]1)N(C=O)C(CNc1ccc(C(=O)N[C@@H](CCC(=O)O)C(=O)O)cc1)CN2 (some centres unmarked) [LV, leucovorin]
established MTD (FOLFIRI component) [1, 4]: 400 mg/m^2

CN1CC[C@H](c2c(O)cc(O)c3c(=O)cc(-c4ccccc4Cl)oc23)[C@H](O)C1 [flavopiridol, Flavopiridol]
MTD with FOLFIRI ([1]; flavopiridol over 1 h (bolus schedule, cohort 9, MTD1), every 2 weeks): 80 mg/m^2 | MTD with FOLFIRI, bolus part [1, 5]: 35 mg/m^2 | MTD with FOLFIRI, part over 4 h [1, 5]: 35 mg/m^2 | objective responses (melanoma): no objective responses | Cmax ([2]; Cmax, at MTDs, patients who experienced DLT): 3.48 µM | Cmax ([2]; Mean Cmax, cycle 1, cohort 9: flavopiridol 80 mg/m^2, irinotecan 180 mg/m^2, n 6): 2.69 µM | MTD of flavopiridol [3]: 50 mg/m^2

CCc1c2c(nc3ccc(OC(=O)N4CCC(N5CCCCC5)CC4)cc13)-c1cc3c(c(=O)n1C2)COC(=O)[C@]3(O)CC [irinotecan]
established MTD (FOLFIRI component) [1, 4]: 180 mg/m^2
